Data from patent US12186740B2, “Kits comprising containers with at least one solid catalytically active compound, and their uses in solid state reaction” (RD&C Research, Development & Consulting GmbH, priority 2018, dated 2025).
Read-outs that look alike come from different tables or passages of the source.

How the values were obtained:
[1] = KMnO4 on aluminium oxide, dry; process times 60 to 300 minutes
[2] = after 60 minutes process time
[3] = acidic stressor at 40° C./75% relative humidity for 3 months; cited from earlier work
[4] = 90 min, no additives
Method: As documented in literature clopidogrel bisulphate exists in one amorphous and two polymorphic forms, polymorph II was used for the experiments described. To elucidate the stability and detect changes of the polymorphic form after energy input a simple experimental set-up with the API and no further additives was executed and the polymorphic form was analysed by WAXS (wide-angel X-ray scattering) and DSC (differential scanning calorimetry).
These experiments could be used to evaluate the stability of various polymorphic forms in general, but could also indicate the stability/instability during industrial processing and manufacturing.

[5] = Proof of concept: solid phase oxidation in a ball mill with a solid catalyst; assay type: physicochemical
Method: The first experiment was focused on a simple, well characterized API and other molecules with low structural complexity but with representative functional groups. They were systematically combined with a selection of potentially suitable catalysts. The solid phase reactions were initiated by ball milling for energy transfer in a controlled environment. In a first experimental set-up the oxidation in solid phase systems was analysed including a systematic evaluation of various catalysts, carrier matrices and reaction conditions.
The following analytical methods were implemented. Two solid phase oxidation reactions were prepared. The catalyst used was KMnO4 on silica and the active reaction container was a ball mill.

Row | Structure (SMILES) | follow-up or second line degradation products [1] | oxidative degradation products formed [1] | time-dependency of the degradation reaction [1] | quantity of degradation, solid phase conditions vs conventional forced degradation conditions ([2]; based on AUCs in the HPLC method) | acidic degradation product (RT 15 min) ([2]; solid phase set-up, acidic solid phase catalyst) | acidic degradation product (RT 15 min) [3] | polymorphic form after milling (DSC profile) ([4]; milling 10 Hz) | polymorphic form after milling (DSC profile) ([4]; milling 25 Hz) | oxidation product(s) formed ([5]; KMnO4 on silica, ball mill) | oxidation product(s) formed ([5]; on aluminium oxide)
1 | COC(=O)[C@H](c1ccccc1Cl)N1CCc2sccc2C1 [clopidogrel bisulphate] | no follow-up or second line degradation products occurred | two oxidative solid phase degradation products | clear time-dependency | comparable amount | could also be detected | detected | minor changes and higher stability | change of the polymorphic form II to the amorphous state | – | –
2 | c1ccc(Sc2ccccc2)cc1 [diphenylsulfide] | – | – | – | – | – | – | – | – | diphenylsulfoxide and diphenylsulfone | solely the higher oxidation state product diphenyl sulfone, but no diphenylsulfoxide
